Tests used:
αT3-1 gonadotrope cells = assay: mCherry DNA delivery in mixed culture, FACS: αT3-1 gonadotrope cells; type: cell-based, murine; details: for delivery of DNA into the cells: GnRH-crosslinked peptides; for αT3-1 gonadotrope cells expressing mCherry: mixed 1:10 with MEFs, 1.5 hours incubation, FACS after 48 hours
Description: (§1) Following 48 hours, cell were sorted by FACS to determine the numbers of cells expressing each fluorescent protein in a quantitative manner. The mCherry expression was detected in 58% of the αT3-1 gonadotrope cells, and in 3% of the MEFs.
(§2) Transfection with delivery peptides—Mixed cell cultures, in which the gonadotropes comprise ˜10% of the cells, as in the pituitary gland, were transferred to media without FCS or antibiotics and pre-incubated for 1.5 hours prior to transfection. The DNA: peptide mix (ratio 1:5; for every 1 μg DNA [mCherry or KRAB-Sf1], 5 μg peptide was used) was incubated for 5 minutes and then added to the cells. Following 1.5 hours the media was removed and replaced with fresh complete media. Cells were collected 24-48 hours later for counting by FACS to determine specificity and efficacy of the delivery, or after 2 weeks for gene expression analysis by qPCR. Further optimization in the mixed cell cultures utilized GnRH-crosslinked Peptide2 mixed 1:10 with non-crosslinked Peptide 2 to attain maximal efficiency and targeting specificity.
(§3) To test whether the newly designed GnRH-carrier might deliver DNA specifically to GnRH receptor-expressing cells, it was first applied to αT3-1 gonadotrope cells and Egr1 mRNA levels measured as a readout for GnRHR binding. […] Following, cells were sorted and counted by FACS to determine the number of cells expressing the delivered DNA in an unbiased manner. After optimization, the number of gonadotrope cells that were transfected reached around 58%, while only 3% of MEF cells expressed the mCherry (FIG. 12B). Assuming 80% of the αT3-1 indeed express the GnRH receptor, the targeting was successful in 72.5% of the GnRH receptor-expressing cells.

GnRH receptor (GnRHR) = molecular target: T1, GnRH receptor (GnRHR) (Mus musculus, UniProt Q01776); assay: Egr1 mRNA induction as readout of GnRHR binding in αT3-1 cells; type: cell-based, murine; set-up: endogenous in cells; host or cells: αT3-1 gonadotrope cell line; details: αT3-1 gonadotrope cells
T1 sequence (Q01776 1-327): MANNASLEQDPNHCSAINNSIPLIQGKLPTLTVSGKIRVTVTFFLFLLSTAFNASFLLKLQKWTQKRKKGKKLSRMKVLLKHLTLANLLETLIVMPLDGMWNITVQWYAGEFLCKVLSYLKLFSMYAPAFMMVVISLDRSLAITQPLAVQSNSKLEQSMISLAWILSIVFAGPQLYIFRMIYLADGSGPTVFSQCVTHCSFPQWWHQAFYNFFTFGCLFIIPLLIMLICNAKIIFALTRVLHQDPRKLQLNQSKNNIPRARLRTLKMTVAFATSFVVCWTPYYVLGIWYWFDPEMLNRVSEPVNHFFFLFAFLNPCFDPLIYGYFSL
Description: as §1
RT-PCR—Real-time quantitative PCR was performed following RNA extraction (Trizol, Invitrogen followed by Zymo RNA purification kit+DNase) and reverse transcriptase (qScript cDNA synthesis kit, Quanta) using polymerase (2×qPCRBIO Fast qPCR SyGreen Blue Mix, Hi-ROX, PCR Biosystems) and the primers shown in Table 2 hereinbelow. Values were calculated using DNA standard curves and normalized to levels of Rplp0.
as §3

[1] = test system: T2, Boc-Arg-Val-Arg-Arg-MCA reporter peptide substrate
T2 sequence: RVRR

LβT2 cells = assay: DNA delivery into LβT2 cells (qPCR of GFP transcript); type: cell-based; details: CPP packaged with DNA construct
Description: FIG. 8A is a schematic representation of a MDP containing protamine as a cell penetrating peptide (CPP), a NLS sequence and C-terminal cysteine cross-linked to GnRHLys6. […] Results are shown as mean±SEM, n=3. […] In FIG. 8E, LβT2 cells were treated with the MDP at two concentrations (200 ng DNA+300 ng MDP or 1 μg DNA+1.5 μg MDP), or 200 ng DNA was transfected using Polyjet reagent (positive control). Following 72 hours, RNA was extracted, purified and treated with DNAse, and qPCR performed using primers targeting the adaptor and GFP, and then by nested PCR targeting just the GFP. Results are shown as mean±SEM, n=3.
(§4) FIG. 9A is a schematic representation of the CPP (NF51) cross-linked to GnRH using this approach and then packaged with the DNA. In FIG. 9B, LβT2 or MEF cells were treated with the NF51-DNA alone, or after its crosslinking to GnRH Lys6. PCR was carried out as in FIG. 8E. Also shown are mRNA levels in samples that lacked the reverse transcriptase (RT).
The delivery delivery proteins—the minimal delivery protein (MDP) chimeric protein (protamine and NLS, SEQ ID NO: 89) was synthesized by GL Biochem. It was crosslinked to GnRH Lys6 analog (SEQ ID NO: 9, Sigma), via the Lys^6 of the GnRH and the C-terminal Cys of the above protein using sulfo-GMBS. The crosslinked protein was dialyzed against PBS. […]

MEF cells = assay: DNA delivery into MEF cells (qPCR of GFP transcript); type: cell-based; details: CPP packaged with DNA construct
Description: as §4
The delivery delivery proteins—the minimal delivery protein (MDP) chimeric protein (protamine and NLS, SEQ ID NO: 89) was synthesized by GL Biochem. It was crosslinked to GnRH Lys6 analog (SEQ ID NO: 9, Sigma), via the Lys^6 of the GnRH and the C-terminal Cys of the above protein using sulfo-GMBS. The crosslinked protein was dialyzed against PBS. NF51 ([stearyl-AGYLLG]-delta-[…], SEQ ID NO: 103 conjugated through Gly6 to the δ-NH2 group of ornithine 1 of SEQ ID NO: 100) was purchased commercially (Icosagen) and cross-linked to GnRH Lys6 using Traut reagent (Pierce) followed by sulfo-GMBS (Thermo Fisher). Peptide 1 comprises the same CPP sequence as NF51 with a terminal cysteine (stearyl-AGYLLG)-delta-[…]-NH2, SEQ ID NO: 103 conjugated through Gly6 to the δ-NH2 group of ornithine 1 of SEQ ID NO: 101) for direct cross-linking, and Peptide 2 contains also the PACE cleavage (stearyl-AGYLLG)-delta-[…]-NH2, SQ ID NO: 103 conjugated through Gly6 to the δ-NH2 group of ornithine 1 of SEQ ID NO: 102). […]

MEFs = assay: mCherry DNA delivery in mixed culture, FACS: MEFs; type: cell-based; details: mixed culture with αT3-1, 1.5 hours incubation, FACS after 48 hours
Description: as §1
as §2, with “Further optimization in the mixed cell cultures utilized GnRH-crosslinked Peptide2 mixed 1:10 with non-crosslinked Peptide 2 to attain maximal efficiency and targeting specificity.” left out
To test whether the newly designed GnRH-carrier might deliver DNA specifically to GnRH receptor-expressing cells, it was first applied to αT3-1 gonadotrope cells and Egr1 mRNA levels measured as a readout for GnRHR binding. […] Following, cells were sorted and counted by FACS to determine the number of cells expressing the delivered DNA in an unbiased manner. […]

[2] = molecular target: T3, Boc-Arg-Val-Arg-Arg-MCA reporter peptide substrate
T3 chain: RVRR

Molecule: (stearyl-AGYLLG)-delta-OINLKALAALAKKILC-NH2 [Peptide 1]
- delivery of DNA into the cells (αT3-1 gonadotrope cells): could deliver some DNA into the cells
- Egr1 mRNA activation (GnRHR binding) (GnRH receptor (GnRHR)): also activated the receptor

Molecule: PACE4 secreted by LβT2 gonadotrope cells (in conditioned medium)
- fluorescence on cleavage of the substrate (380 nm ex/460 nm em) [1]: cutting the reporter and emitting fluorescence at a much higher level than seen in the incubation media of MEF cells

Molecule: [stearyl-AGYLLG]-delta-OINLKALAALAKKIL [NF51, reference compound]
- transfection of LβT2 gonadotrope cells (LβT2 cells): highly efficient
- transfection of MEF cells (MEF cells): highly efficient

Molecule: (stearyl-AGYLLG)-delta-OINLKALAALAKKILRVRRC-NH2 [GnRH Lys6-Peptide 2]
- delivery of DNA into the cells (αT3-1 gonadotrope cells): could deliver some DNA into the cells
- successful targeting of GnRH receptor-expressing cells (αT3-1 gonadotrope cells; assuming 80% of the αT3-1 express the GnRH receptor): 72.5%
- specificity of DNA delivery to gonadotropes (αT3-1 gonadotrope cells; compared with peptide without PACE4 cleavage site): much more specific to gonadotropes
- αT3-1 gonadotrope cells expressing mCherry (αT3-1 gonadotrope cells): 58%
- αT3-1 gonadotrope cells expressing mCherry (αT3-1 gonadotrope cells; listed as Peptide 2): around 58%
- MEFs expressing mCherry (MEFs): 3%
- Egr1 mRNA activation (GnRHR binding) (GnRH receptor (GnRHR)): activated Egr1 mRNA

B1: PACE4 secreted by PANC-1 pancreatic cells (in conditioned medium) (protein)
chain: QVRSDPQALYFNDPIWSNMWYLHCGDKNSRCRSEMNVQAAWKRGYTGKNVVVTILDDGIERNHPDLAPNYDSYASYDVNGNDYDPSPRYDASNENKHGTRCAGEVAASANNSYCIVGIAYNAKIGGIRMLDGDVTDVVEAKSLGIRPNYIDIYSASWGPDDDGKTVDGPGRLAKQAFEYGIKKGRQGLGSIFVWASGNGGREGDYCSCDGYTNSIYTISVSSATENGYKPWYLEECASTLATTYSSGAFYERKIVTTDLRQRCTDGHTGTSVSAPMVAGIIALALEANSQLTWRDVQHLLVKTSRPAHLKASDWKVNGAGHKVSHFYGFGLVDAEALVVEAKKWTAVPSQHMCVAASDKRPRSIPLVQVLRTTALTSACAEHSDQRVVYLEHVVVRTSISHPRRGDLQIYLVSPSGTKSQLLAKRLLDLSNEGFTNWEFMTVHCWGEKAEGQWTLEIQDLPSQVRNPEKQGKLKEWSLILYGTAEHPYHTFSAHQSRSRMLELSAPELEPPKAALSPSQVEVPEDEEDYTAQSTPGSANILQTSVCHPECGDKGCDGPNADQCLNCVHFSLGSVKTSRKCVSVCPLGYFGDTAARRCRRCHKGCETCSSRAATQCLSCRRGFYHHQEMNTCVTLCPAGFYADESQKNCLKCHPSCKKCVDEPEKCTVCKEGFSLARGSCIPDCEPGTYFDSELIRCGECHHTCGTCVGPGREECIHCAKNFHFHDWKCVPACGEGFYPEEMPGLPHKVCRRCDENCLSCAGSSRNCSRCKTGFTQLGTSCITNHTCSNADETFCEMVKSNRLCERKLFIQFCCRTCLLAG
- fluorescence on cleavage of the substrate [2]: cutting the reporter and emitting fluorescence at a much higher levels than the HEK cells

Source: patent US20240301090A1, “COMPOSITIONS AND METHODS FOR TREATING A MEDICAL CONDITION” (priority 2021, published 2024)
